Measured values reported in patent US20120022122A1, “TREATMENT AND PREVENTION OF DELETERIOUS EFFECTS ASSOCIATED WITH ALCOHOL CONSUMPTION” (priority 2008, published 2012).
Read-outs that look alike come from different tables or passages of the source.

Columns and labels:
[1] = cited from earlier work
[2] = test system: alcohol-induced flush reaction; conditions: for undesired side-effects (drowsiness, sedation): famotidine 10 mg oral chewable tablet, with alcohol; for effects/effectiveness compared to no treatment or comparator: cimetidine 300 mg vs famotidine 10 mg vs no treatment; for effectiveness as preventative treatment against symptoms of alcohol-induced flush reaction (summary of the studies): famotidine at low dose, cimetidine at a higher dose;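 for all read-outs here: human subjects with alcohol-induced flushing observed over social drinking occasions, with each subject also tested untreated as the control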
[3] = test system: alcohol flush reaction and hangover; conditions: previous studies with famotidine alone
[4] = Patient one, oral 45 min before drinking: cimetidine 300 mg (2 beverages, about 2 h) or famotidine 10 mg (2 oz tequila and 5 glasses beer, more than 6 h)
[5] = Patient three, oral 45 min before drinking: cimetidine 300 mg (2 beverages, about 3 h) or famotidine 10 mg (cocktails, about 4 h)
[6] = Subject 1, with alcohol, oral 45 min before drinking: loratidine 20 mg or famotidine 10 mg
[7] = Subject 2, with alcohol, oral 45 min before drinking: cimetidine 300 mg or famotidine 10 mg
[8] = Subject 3, with alcohol, oral 45 min before drinking: loratidine 20 mg or famotidine 10 mg
[9] = Subject 4, with alcohol, oral 45 min before drinking: cimetidine 300 mg or famotidine 10 mg
[10] = Subject 5, with alcohol, oral 45 min before drinking: loratidine 20 mg or famotidine 10 mg

NC(N)=Nc1nc(CSCCC(N)=NS(N)(=O)=O)cs1 [Famotidine]
solubility ([1]; in ethanol): practically insoluble | solubility ([1]; in glacial acetic acid): freely soluble | solubility ([1]; in methanol): slightly soluble | solubility ([1]; in water): very slightly soluble | redness while imbibing in alcohol ([2]; 10 mg of famotidine): significantly prevents redness | undesired side-effects (drowsiness, sedation) ([2]; Patient five): no undesired side-effects whatsoever | period after which the protective effect (flushing blockade) dissipated ([2]; Patient five, famotidine 10 mg oral, continued drinking beyond six drinks and more than six hours): about five | flushing reaction after drinking alcohol ([2]; Patient five, oral 45 min before drinking: loratadine 20 mg (1 beverage, 1 h) or famotidine 10 mg (5 beverages, about 5 h)): neither a facial flushing reaction nor any nasal congestion | undesired side-effects (drowsiness, sedation) ([2]; Patient four): no undesired side-effects whatsoever | flushing reaction after drinking alcohol ([2]; Patient four, oral 45 min before drinking: loratadine 20 mg (3 beverages, 3-4 h) or famotidine 10 mg (multiple glasses of wine, 4 h)): no flushing reactions of the face or of the torso | effects/effectiveness compared to no treatment or comparator ([2]; Patient one): much more effective than cimetidine | undesired side-effects (drowsiness, sedation) ([2]; Patient one): no undesired side-effects whatsoever | flushing reaction after drinking alcohol [2, 4]: no facial flushing reaction | effects/effectiveness compared to no treatment or comparator ([2]; Patient three): much more effective than cimetidine or no treatment | undesired side-effects (drowsiness, sedation) ([2]; Patient three): no undesired side-effects whatsoever | flushing reaction after drinking alcohol [2, 5]: no flushing reactions of the face | undesired side-effects (drowsiness, sedation) ([2]; Patient two): no undesired side-effects whatsoever | flushing reaction after drinking alcohol ([2]; Patient two, oral 45 min before drinking: loratadine 20 mg (3 beverages, 3-4 h) or famotidine 10 mg (2-3 glasses Vodka, several hours)): no flushing reactions, either of the face or of the torso | Heart rate [2, 6]: 77 | Temp (F.) [2, 6]: 97.3 F. | Heart rate [2, 7]: 82 | Temp (F.) [2, 7]: 98.2 F. | Heart rate [2, 8]: 84 | Temp (F.) [2, 8]: 97.4 F. | Heart rate [2, 9]: 78 | Temp (F.) [2, 9]: 97.1 F. | Heart rate [2, 10]: 83 | Temp (F.) [2, 10]: 97.3 F. | effectiveness as preventative treatment against symptoms of alcohol-induced flush reaction (summary of the studies) [2]: highly effective | symptoms associated with hangover [3]: did not appear to significantly reduce or eliminate symptoms associated with hangover

CN/C(=N/CCSCc1nc[nH]c1C)NC#N [Cimetidine]
effects/effectiveness compared to no treatment or comparator ([2]; Patient one): slightly less aggressive | flushing reaction after drinking alcohol [2, 4]: still experienced a facial flushing reaction, increased heart rate, as well as a headache | effects/effectiveness compared to no treatment or comparator ([2]; Patient three): slightly less aggressive | flushing reaction after drinking alcohol [2, 5]: still experienced a facial flushing reaction and an increased heart rate | Heart rate [2, 7]: 97 | Temp (F.) [2, 7]: 98.0 F. | Heart rate [2, 9]: 87 | Temp (F.) [2, 9]: 97.1 F. | effectiveness as preventative treatment against symptoms of alcohol-induced flush reaction (summary of the studies) [2]: minimally effective
